Assay results taken from patent US7022836B2, “Methods for producing and transforming cassava protoplasts” (National Starch and Chemical Investment Holding Corporation, priority 1999, dated 2006).
Marks after values point to notes of the source that are not given here.

System: cassava leaf explants
Assay: Primary somatic embryogenesis from leaf explants (mature embryos per cultured leaf explant)
Format: cell-based
Conditions: for leaf explants that formed ME / number of ME/CLE: maximum
Experimental: The procedure to obtain FEC is outlined in FIG. 1. 1t starts with the induction of primary embryos. Primary embryos are formed in a two step procedure. In the first step explants are cultured on medium supplemented with salts and vitamins (preferably Murashige and Skoog (1962)), a carbohydrate source (for example 20 g/l sucrose) and an auxin (e.g. 1–8 mg/l picloram, or dicamba or 2,4-D) for the initiation of embryos. After 10 to 15 days on this first medium bipolar torpedo shaped embryos are formed. […] After transfer of the explants with torpedo shaped embryos to a step 2 medium (the same medium as step 1 but without an auxin, with eventually the addition of cytokinins) the torpedo shaped embryos become mature.
In the presently used protocol there is genotypic variation in the number of mature embryos formed per cultured explant. The genotypes M.Col1505, M.Col22 and Gading gave the highest numbers of mature embryos per cultured leaf explant (ME/CLE). However, the number of mature embryos formed was low. In M.Col22 a maximum of 22% of the leaf explants isolated from in vitro grown plants and cultured on a step 1 medium with 4 mg/l 2,4-D, formed ME with a maximum number of 0.8 ME/CLE. On a step 1 medium with 8 mg/l 2,4-D a maximum of 49% of the leaf explants formed ME with a maximum number of 3.5 ME/CLE.
Mathews et al. (1993) improved the efficiency of primary embryogenesis in the genotype M.Co11505 by transferring explants after 15 days of step 1 medium to a growth regulator-free medium supplemented with 0.5% charcoal. On this medium maturation was improved and as a result the number of mature embryos increased from 0.4 in the control to 3,4 ME/CLE. The best results were obtained if donor plants were pretreated with auxins as 2,4-D or picloram or Dicamba. For this, plants were grown in liquid MS20 medium and supplied with the auxin (final concentration 8 mg/l) after 12 days of growth. Two days later leaf explants were isolated of the donor plants and cultured on step 1 medium with 8 mg/l 2,4-D, picloram or Dicamba.

[1] = M.Col22, step 1 medium with 4 mg/l 2,4-D
[2] = M.Col22, step 1 medium with 8 mg/l 2,4-D

Q: For O=C(O)COc1ccc(Cl)cc1Cl [2,4-D, 2,4-dichlorophenoxyacetic acid], which “leaf explants that formed ME” value [1] is on record?
A: ≤ 22%

Q: What about the “number of ME/CLE” value [1] of the same molecule?
A: ≤ 0.8 ME/CLE

Q: What about the “leaf explants that formed ME” value [2] of the same molecule?
A: ≤ 49%

Q: What about the “number of ME/CLE” value [2] of the same molecule?
A: ≤ 3.5 ME/CLE

Q: What about the “primary mature embryos per cultured leaf explant after 2,4-D pretreatment” value (genotype M.Col22, pretreatment yes) of the same molecule?
A: 9.4 # mature embryos per cultured leaf explant

Q: What about the “primary mature embryos per cultured leaf explant after 2,4-D pretreatment” value (genotype TMS 4(2)1244, pretreatment yes) of the same molecule?
A: 0 # mature embryos per cultured leaf explant

Q: What about the “primary mature embryos per cultured leaf explant after 2,4-D pretreatment” value (genotype TMS 30001, pretreatment yes) of the same molecule?
A: 0 # mature embryos per cultured leaf explant

Q: And the “primary mature embryos per cultured leaf explant after 2,4-D pretreatment” value (genotype TMS 30211, pretreatment yes)?
A: 0 # mature embryos per cultured leaf explant

Q: What about the “primary mature embryos per cultured leaf explant after 2,4-D pretreatment” value (genotype TMS 30395, pretreatment yes) of the same molecule?
A: 0.1 # mature embryos per cultured leaf explant

Q: What about the “primary mature embryos per cultured leaf explant after 2,4-D pretreatment” value (genotype TMS 30555, pretreatment yes) of the same molecule?
A: 0.7 # mature embryos per cultured leaf explant

Q: And the “primary mature embryos per cultured leaf explant after 2,4-D pretreatment” value (genotype TMS 30572, pretreatment yes)?
A: 0 # mature embryos per cultured leaf explant

Q: What about the “primary mature embryos per cultured leaf explant after 2,4-D pretreatment” value (genotype TMS 50395, pretreatment yes) of the same molecule?
A: <0.1 # mature embryos per cultured leaf explant

Q: And the “primary mature embryos per cultured leaf explant after 2,4-D pretreatment” value (genotype TMS 60444, pretreatment yes)?
A: 1.1 # mature embryos per cultured leaf explant

Q: What about the “primary mature embryos per cultured leaf explant after 2,4-D pretreatment” value (genotype TMS 60506, pretreatment yes) of the same molecule?
A: <0.1 # mature embryos per cultured leaf explant

Q: And the “primary mature embryos per cultured leaf explant after 2,4-D pretreatment” value (genotype TMS 90059, pretreatment yes)?
A: <0.1 # mature embryos per cultured leaf explant

Q: And the “primary mature embryos per cultured leaf explant after 2,4-D pretreatment” value (genotype TMS 90853, pretreatment yes)?
A: 0.2 # mature embryos per cultured leaf explant
